Results taken from paper PMC10739246 (ACS Bio & Med Chem Au, 2023).
Values after ≈ are worked out from the molar mass of the structure shown. “Also recorded” adds a separate entry of the source. Read-outs that look alike come from different tables or passages of the source.

Tests used:
[1] = tested on: K. pneumoniae (ATCC 10031); assay: MIC, K. pneumoniae ATCC 10031; assay type: cell-based, Klebsiella pneumoniae; conditions: Klebsiella pneumoniae, ATCC10031
[2] = tested on: S. aureus (CCUG1800T); assay: MIC, microdilution, S. aureus CCUG1800T; assay type: cell-based, Staphylococcus aureus; conditions: Staphylococcus aureus
[3] = tested on: S. aureus (ATCC 43300) MRSA; assay: MIC, microdilution, MRSA ATCC 43300; assay type: cell-based, Staphylococcus aureus; conditions: Staphylococcus aureus; norfloxacin-resistant strain
[4] = tested on: E. faecalis (ATCC 19433); assay: MIC, E. faecalis ATCC 19433; assay type: cell-based, Enterococcus faecalis; conditions: Enterococcus faecalis, ATCC19433
[5] = tested on: M. tuberculosis (MC26020); assay: microbe, parasite or virus in culture; assay type: cell-based, Mycobacterium tuberculosis; conditions: Mycobacterium tuberculosis, read-out: MIC M. tuberculosis (MC26020)
[6] = tested on: E. coli W3110; assay: Bacterial cytological profiling (BCP) in E. coli W3110; assay type: cell-based, Escherichia coli; conditions: for DAPI / phase contrast / FM4-64: 1x MIC, 1 h; for DAPI: DNA condensation; for phase contrast: indicates cell lysis; for FM4-64: membrane stain; for gyrase inhibition / membrane damage: interpretation of BCP in E. coli
[7] = tested on: B. subtilis DSM402; assay: Bacterial cytological profiling (BCP) in B. subtilis DSM402; assay type: cell-based, Bacillus subtilis; conditions: for DAPI / phase contrast / FM4-64: 1x MIC, 1 h; for DAPI: DNA condensation; for phase contrast: indicates cell lysis; for FM4-64: membrane stain; for gyrase inhibition / membrane damage: interpretation of BCP in B. subtilis
[8] = tested on: MreB in B. subtilis MW10; assay: MreB mobility assay; assay type: cell-based, Bacillus subtilis; conditions: B. subtilis MW10, 1 h of antibiotic exposure
Description: MreB is an actin homologue that forms filamentous structures along the lateral axis of the cell. It moves along the length of the cells in a spiraling pattern thereby driving lateral peptidoglycan synthesis.[36],[37] MreB mobility is sensitive to inhibition of peptidoglycan synthesis and so far, every cell wall synthesis inhibitor we tested abolished MreB movement (see Figure S70 for examples).
Expression of msfGFP-MreB was induced with 0.3% xylose. Pictures were taken after 1 h of antibiotic exposure. Two images of the same field of view were recorded 30 s apart and overlaid in ImageJ to visualize MreB mobility. A perfect overlap (yellow) indicates stalled MreB movement, while distinct red and green foci are indicative of MreB mobility. Scale bar 2 μm.
Fig. S70: MreB motility in B. subtilis MW10 after treatment with different cell wall synthesis inhibitors. Expression of GFP-MreB was induced with 0.3% xylose. Cells were treated with 1x […]
Two images of the same field of view were recorded 30 sec apart and overlaid in ImageJ to visualize MreB mobility. A perfect overlap (yellow) indicates stalled MreB movement while distinct red and green spots are indicative of MreB mobility. Scale bar 2 µm.

[9] = tested on: cell wall biosynthesis in B. subtilis DSM402; assay: Summary of cell wall synthesis experiments; assay type: cell-based, Bacillus subtilis
[10] = tested on: MraY in B. subtilis TNVS284; assay: MraY localization; conditions: 1x MIC, 30 min (vancomycin) or 1 h
[11] = tested on: PbpB in B. subtilis EKB46; assay: PbpB localization; conditions: 1x MIC, 30 min (vancomycin) or 1 h
[12] = tested on: PonA in B. subtilis TNVS45; assay: PonA localization; conditions: 1x MIC, 30 min (vancomycin) or 1 h
[13] = tested on: B. subtilis DSM402; assay: microbe, parasite or virus in culture; conditions: Bacillus subtilis, DSM402, read-out: concentration (MIC against B. subtilis DSM402)
[14] = tested on: E. coli BCB472; assay: GlpT localization (inner membrane) in E. coli BCB472; conditions: 1x MIC, 1 h; GFP-tagged membrane protein
[15] = tested on: B. subtilis DSM402; assay: Peptidoglycan integrity assay (acetic acid/methanol fixation); conditions: 1x MIC; 30 min (cell wall inhibitors) or 60 min
[16] = tested on: E. coli (W3110); assay: MIC, microdilution, E. coli W3110; assay type: cell-based, Escherichia coli; conditions: Escherichia coli
[17] = tested on: norfloxacin-resistant clinical isolate of E. coli; assay: MIC, microdilution, norfloxacin-resistant clinical isolate of E. coli; assay type: cell-based, Escherichia coli; conditions: Escherichia coli, read-out: MIC E. coli (norfloxacin-resistant strain)
[18] = tested on: P. aeruginosa (PAO1); assay: MIC, microdilution, P. aeruginosa PAO1; assay type: cell-based, Pseudomonas aeruginosa; conditions: Pseudomonas aeruginosa, PAO1
[19] = biological target: T1, E. coli DNA gyrase (Escherichia coli, UniProt P0AES4+P0AES6); assay: In vitro DNA gyrase cleavage assay; assay type: biochemical
T1 construct: purchased Inspiralis

[20] = tested on: MurG in B. subtilis TNVS175; assay: MurG localization; assay type: cell-based, Bacillus subtilis; conditions: for protein localization MurG: 1x MIC, 30 min (vancomycin) or 1 h;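 for protein localization MurG: normal MurG forms small membrane spots and peptidoglycan inhibition gives large clusters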
[21] = tested on: B. subtilis DSM402; conditions: Table 2; cells treated with 1x MIC
[22] = tested on: E. coli; conditions: for Outcome: checkerboard with mupirocin; for FICM (MICMcheckerboard/MICM): mupirocin alone 64 µg/mL
[23] = in vitro; conditions: human
[24] = tested on: E. coli; assay: microbe, parasite or virus in culture; conditions: Escherichia coli, read-out: MICC (MIC of the test compound alone)
[25] = biological target: T2, E. coli topoisomerase IV (Escherichia coli, UniProt P0AFI2+P20083); assay: In vitro topoisomerase IV cleavage assay; assay type: biochemical; conditions: read-out: % topoisomerase IV inhibition
T2 construct: purchased Inspiralis

[26] = read-out: MIC S. aureus (CCUG1800T)
[27] = read-out: concentration (MIC against E. coli W3110)
[28] = Gram-negative strain, average of duplicate experiments, read-out: MIC E. coli (W3110)

T1 sequence (P0AES4 whole entry, one chain of several): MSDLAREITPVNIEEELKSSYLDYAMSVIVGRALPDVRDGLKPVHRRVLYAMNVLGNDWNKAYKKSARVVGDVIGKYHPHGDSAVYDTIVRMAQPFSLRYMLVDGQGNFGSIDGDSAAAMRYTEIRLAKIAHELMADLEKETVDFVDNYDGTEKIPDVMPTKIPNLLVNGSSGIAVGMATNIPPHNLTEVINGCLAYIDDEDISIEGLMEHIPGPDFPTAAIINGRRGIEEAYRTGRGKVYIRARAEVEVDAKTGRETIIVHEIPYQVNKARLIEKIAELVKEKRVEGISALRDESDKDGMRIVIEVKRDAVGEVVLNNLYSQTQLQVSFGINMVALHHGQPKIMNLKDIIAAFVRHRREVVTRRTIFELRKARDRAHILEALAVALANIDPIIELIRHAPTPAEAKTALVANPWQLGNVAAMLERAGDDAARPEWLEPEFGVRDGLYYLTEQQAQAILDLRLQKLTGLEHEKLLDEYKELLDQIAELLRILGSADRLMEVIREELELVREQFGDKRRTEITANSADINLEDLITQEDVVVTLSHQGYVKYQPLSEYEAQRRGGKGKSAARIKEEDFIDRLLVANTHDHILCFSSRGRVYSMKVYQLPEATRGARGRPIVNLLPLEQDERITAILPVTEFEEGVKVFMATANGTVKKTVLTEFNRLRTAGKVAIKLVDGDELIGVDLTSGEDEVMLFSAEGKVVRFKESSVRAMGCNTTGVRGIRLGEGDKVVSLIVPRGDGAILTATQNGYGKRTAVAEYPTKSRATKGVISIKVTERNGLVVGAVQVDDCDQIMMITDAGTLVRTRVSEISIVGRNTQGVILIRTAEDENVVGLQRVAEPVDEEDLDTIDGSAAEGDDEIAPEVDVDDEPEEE
T2 sequence (P0AFI2 whole entry): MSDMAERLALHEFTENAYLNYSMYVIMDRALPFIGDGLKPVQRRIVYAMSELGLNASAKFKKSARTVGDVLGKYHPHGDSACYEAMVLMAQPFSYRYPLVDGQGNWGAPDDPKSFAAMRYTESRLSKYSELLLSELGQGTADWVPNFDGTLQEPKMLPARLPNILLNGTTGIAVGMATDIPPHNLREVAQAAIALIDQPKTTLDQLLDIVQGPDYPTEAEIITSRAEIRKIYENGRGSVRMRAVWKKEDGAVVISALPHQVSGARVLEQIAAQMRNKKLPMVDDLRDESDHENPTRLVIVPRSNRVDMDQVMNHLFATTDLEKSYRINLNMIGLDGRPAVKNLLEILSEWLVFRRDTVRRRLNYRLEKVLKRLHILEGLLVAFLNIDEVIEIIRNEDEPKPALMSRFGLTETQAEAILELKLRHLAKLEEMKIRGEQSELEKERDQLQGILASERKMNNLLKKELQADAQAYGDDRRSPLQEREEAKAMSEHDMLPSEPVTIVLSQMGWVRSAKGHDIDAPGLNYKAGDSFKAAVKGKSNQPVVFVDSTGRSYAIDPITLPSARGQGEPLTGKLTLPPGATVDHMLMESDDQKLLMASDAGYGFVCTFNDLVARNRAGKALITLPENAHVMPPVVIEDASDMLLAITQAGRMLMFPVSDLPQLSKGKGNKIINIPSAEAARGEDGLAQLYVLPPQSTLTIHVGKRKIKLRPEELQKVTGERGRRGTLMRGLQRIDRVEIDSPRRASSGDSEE
T2 sequence (P20083 whole entry): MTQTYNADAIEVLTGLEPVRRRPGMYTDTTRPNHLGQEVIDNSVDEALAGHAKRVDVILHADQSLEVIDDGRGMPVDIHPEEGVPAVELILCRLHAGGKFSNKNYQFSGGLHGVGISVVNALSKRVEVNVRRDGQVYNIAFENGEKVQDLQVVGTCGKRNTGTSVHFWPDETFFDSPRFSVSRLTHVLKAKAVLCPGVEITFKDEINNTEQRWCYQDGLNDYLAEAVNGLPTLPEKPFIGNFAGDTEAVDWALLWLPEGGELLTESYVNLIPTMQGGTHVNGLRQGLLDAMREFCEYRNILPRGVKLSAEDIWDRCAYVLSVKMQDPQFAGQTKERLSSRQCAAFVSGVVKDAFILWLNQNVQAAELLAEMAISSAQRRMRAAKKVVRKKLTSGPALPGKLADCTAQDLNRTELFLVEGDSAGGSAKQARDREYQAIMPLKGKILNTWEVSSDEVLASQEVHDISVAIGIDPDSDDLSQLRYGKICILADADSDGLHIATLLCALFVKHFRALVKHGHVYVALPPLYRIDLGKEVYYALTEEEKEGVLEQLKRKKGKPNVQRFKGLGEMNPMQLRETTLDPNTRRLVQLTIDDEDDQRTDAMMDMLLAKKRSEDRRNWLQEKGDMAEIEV

Structure (SMILES)	MIC [1] [µM]	MIC [2, 26] [µM]	MIC [3] [µM]	MIC [4] [µM]	MIC [5] [µM]	DAPI [6]	phase contrast [6]	FM4-64 [6]	gyrase inhibition [6]	membrane damage [6]	DAPI [7]	phase contrast [7]	FM4-64 [7]	gyrase inhibition [7]	membrane damage [7]	MreB mobility [8]	CWB inhibited? [9]	protein localization MraY [10]	protein localization PbpB [11]	protein localization PonA [12]	also measured
O=C(O)c1cn(C2CC2)c2cc(N3CCNCC3)c(F)cc2c1=O [Cip, ciprofloxacin, reference compound]	7.54 (≈ 2.5 µg/mL)	3.01 (≈ 0.997 µg/mL)	96.6 (≈ 32 µg/mL)	6.03 (≈ 2 µg/mL)	2.26 (≈ 0.749 µg/mL)	condensed	dark	smooth	yes	no	condensed	dark	few patches	yes	possibly	mobile	no	rough	smooth	septal	MreB mobility ([8]; listed as ciprofloxacin): did not affect either MreB mobility or localization; MIC [13]: 3.01 µM (≈ 0.997 µg/mL); GlpT [14]: smooth; PG integrity [15]: intact
CCn1cc(C(=O)O)c(=O)c2cc(F)c(N3CCNCC3)cc21 [Nor, norfloxacin, reference compound]	9.39 (≈ 3 µg/mL)	3.13 (≈ 1 µg/mL)	100 (≈ 32 µg/mL)	4.69 (≈ 1.5 µg/mL)	1.56 (≈ 0.498 µg/mL)	condensed	dark	smooth	yes	no	condensed	dark	few patches	yes	possibly	mobile with static foci	no	rough	smooth	septal/patchy	MIC [16, 27]: 0.37 µM; MIC [16, 28]: 0.39 µM; MIC ([17]; norfloxacin-resistant clinical isolate): 50.1 µM (≈ 16 µg/mL); MIC [18]: 6.26 µM (≈ 2 µg/mL); inhibition at 10 µM [19]: 73.6%; MreB mobility ([8]; listed as norfloxacin): the same effect was observed; protein localization MurG [20]: smooth/spotty; protein localization MurG ([20]; listed as norfloxacin): mostly smooth phenotype; larger MurG clusters ([20]; quantification of microscopy images): up to 30%; μM (concentration used, 1x MIC) [21]: 18.11 µM; Outcome [22]: additive (>0.5 to ≤4.0 as additive (no interaction)); FICM (MICMcheckerboard/MICM) [22]: 0.5; IC50 at 24 h [23]: 48.2 ± 3.92 µM; protein localization MraY ([10]; listed as norfloxacin): no effect on the other two proteins; protein localization PbpB ([11]; listed as norfloxacin): no effect on the other two proteins; protein localization PonA ([12]; listed as norfloxacin): accumulation in distinct foci at the cell membrane; MIC [13]: 18.1 µM (≈ 5.78 µg/mL); MIC [24]: 0.125 µg/mL; GlpT [14]: smooth; PG integrity [15]: intact
CCn1cc(C(=O)O)c(=O)c2cc(F)c(N3CCN(CNc4ccc([N+](=O)[O-])cc4)CC3)cc21 [compound 21]	4.26 (≈ 2 µg/mL)	2.13 (≈ 1 µg/mL)	34.1 (≈ 16 µg/mL)	2.13 (≈ 1 µg/mL)	6.39 (≈ 3 µg/mL)	condensed	dark	Smooth	yes	no	condensed	dark	smooth	yes	no	much smaller clusters and more clusters per cell; also recorded: mobile with static foci	yes ^b	neither compound affected the localization; also recorded: rough	neither compound affected the localization; also recorded: smooth	neither compound affected the localization; also recorded: septal	MIC [16, 27]: 0.266 µM; MIC ([16]; E. coli W3110, converted from 0.266 μM, read-out: MIC): 0.125 µg/mL; MIC [16, 28]: 0.266 µM; MIC ([16]; Tab. S10, topoisomerase IV side, strain not given, values equal E. coli W3110 of Table 1, read-out: MIC): 0.266 µM; MIC [17]: 17 µM (≈ 8 µg/mL); MIC [18]: 2.13 µM (≈ 1 µg/mL); MIC ([2]; Tab. S10, DNA gyrase side, strain not given, values equal S. aureus CCUG1800T of Table 1, read-out: MIC): 2.13 µM (≈ 1 µg/mL); inhibition at 10 µM [19]: 77.9%; inhibition at 10 µM [25]: 45.5%; protein localization MurG [20]: only visible in the proximity of the cell poles; also recorded: polar spotty; μM (concentration used, 1x MIC) [21]: 2.13 µM; FICC (fractional inhibitory concentration of the test compound) ([22]; MICCcheckerboard/MICC): 0.0039; Outcome [22]: additive (>0.5 to ≤4.0 as additive (no interaction)); FICM (MICMcheckerboard/MICM) [22]: 1; FICI (fractional inhibitory concentration index) ([22]; with mupirocin, FICC+FICM): 1.004; MIC [13]: 2.13 µM (≈ 1 µg/mL); MIC [24]: 0.125 µg/mL; GlpT [14]: Smooth; PG integrity [15]: came close to the cutoff value; also recorded: Intact
